Laboratory results as given in PMC4503954, “The mitochondrial malate dehydrogenase 1 gene GhmMDH1 is involved in plant and root growth under phosphorus deficiency conditions in cotton” (Scientific Reports, 2015).

Target: T1, GhmMDH1 (Gossypium hirsutum, UniProt A0A1U8J4P3)
T1 construct: gene LOC107903665; N-terminus […]; (27-residue mitochondrial target signal)
Assay: NADH/NAD+ absorbance at […] nm, nonlinear regression
Assay type: biochemical
Settings: 50 mM MOPS pH 7.5, 25 °C

T1 sequence (A0A1U8J4P3 entry or part of it): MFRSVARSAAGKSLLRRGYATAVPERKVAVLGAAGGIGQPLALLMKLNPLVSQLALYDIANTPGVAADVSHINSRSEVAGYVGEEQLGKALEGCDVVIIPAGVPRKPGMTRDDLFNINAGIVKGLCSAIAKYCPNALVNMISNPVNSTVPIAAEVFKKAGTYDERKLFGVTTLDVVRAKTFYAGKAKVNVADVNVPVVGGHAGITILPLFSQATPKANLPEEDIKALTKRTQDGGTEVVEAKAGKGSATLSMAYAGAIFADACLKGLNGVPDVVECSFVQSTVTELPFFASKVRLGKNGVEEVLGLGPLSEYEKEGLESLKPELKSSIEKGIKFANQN

Work on NC(=O)c1ccc[n+]([C@@H]2O[C@H](COP(=O)(O)OP(=O)(O)OC[C@H]3O[C@@H](n4cnc5c(N)ncnc54)[C@H](O)[C@@H]3O)[C@@H](O)[C@H]2O)c1 [NAD^+] yielded a Km (50 mM L-malate) of 766 ± 84 µM.

Work on O=C(O)CC(=O)C(=O)O [OAA] yielded a Km (0.2 mM NADH) of 132 ± 25 µM.

NC(=O)C1=CN([C@@H]2O[C@H](COP(=O)(O)OP(=O)(O)OC[C@H]3O[C@@H](n4cnc5c(N)ncnc54)[C@H](O)[C@@H]3O)[C@@H](O)[C@H]2O)C=CC1 [NADH] showed a Km (0.5 mM OAA) of 107 ± 19 µM.

For O=C(O)C[C@H](O)C(=O)O [Malate], the Km (1.0 mM NAD+) was 2910 ± 290 µM.
